{"source": "patent US20240261302A1", "about": "“METHODS OF TREATING NEURODEGENERATIVE DISEASES OR CONDITIONS” (FloraScience Inc., priority 2023, published 2024)", "key": {"HT22 mt-GFP cells": {"system": "HT22 mt-GFP cells", "assay": "Mitochondrial Network Morphology Analysis", "assay_type": "cell-based, mouse", "procedure": "Mitochondrial Network Morphology Analysis. HT22 mt-GFP cells were seeded at 20,000 cells/well on glass coverslips in 24-well plates in DMEM supplemented with 10% FBS and 1% antibiotics. The following day, the cells were treated with the test compounds for the desired period of time. After rinsing with PBS, the cells on glass coverslips were fixed with 4% paraformaldehyde (pH 7.4) for 10 min at 37° C. After additional PBS rinses, the coverslips were mounted onto glass microslides with Fluoro-Gel (Electron Microscopy Sciences, Cat #17985-10). Z-stack images of fixed cells were acquired on a Zeiss LSM 880 rear port laser scanning confocal and Airyscan FAST microscope with ZEN Black software to trace and render cells in 3D. The mitochondrial network morphology parameters (n=20-25 cells/condition) were scored and analyzed with the MiNA module of ImageJ/Fiji software."}, "HT22 cells": {"system": "HT22 cells", "assay": "Cellular Lipid Peroxidation Measurement (C11-BODIPY)", "assay_type": "cell-based, mouse", "procedure": "Lipid Peroxidation MeasurementsHT22 cells were seeded onto 96-well black walled plates at a density of 3,000 cells/well in DMEM supplemented with 10% FBS and 1% antibiotics. After the desired treatments, cells were labeled with 2.5 μM C11-BODIPY 581/591 (oxidized form Ex/Em=488/520 nm) at 37° C. for 2 hr. Experiments were performed according to the manufacturer's instructions. Fluorescence was measured on a SpectraMax M5 microplate reader. Data were normalized for total protein/well. Each condition was analyzed in twelve wells per independent experiment (n=12). Results were presented as the percentage of the controls with vehicle alone. Results were verified by live-cell imaging under a fluorescence microscope."}, "[1]": {"conditions": "cited from earlier work"}}}
{"compound": "CCCCCc1cc(O)c2c(c1)OC(C)(C)c1ccc(C)cc1-2", "note": "[CBN, 6,6,9-Trimethyl-3-pentyl-benzo[c]chromen-1-ol]", "values": [{"measurement": "RSL3-induced mitochondrial fragmentation", "setting": "HT22 mt-GFP cells; 50 nM RSL3", "value": "prevent the mitochondrial fragmentation"}, {"measurement": "individual and summed branch lengths of mitochondria", "setting": "HT22 mt-GFP cells; CBN alone", "value": "significantly increased"}, {"measurement": "mitochondrial footprints and network branches", "setting": "HT22 mt-GFP cells; CBN alone", "value": "no apparent effects"}, {"measurement": "RSL3-induced cellular lipid peroxidation", "setting": "HT22 cells; 50 nM RSL3, 16 hr, p<0.0001", "value": "effectively suppressed"}, {"measurement": "basal cellular lipid peroxidation, compound alone", "setting": "HT22 cells; CBN 5 μM, ferrostatin 10 μM, 16 hr", "value": "neither CBN (5 μM) nor ferrostatin (10 μM) alone changed basal levels of lipid peroxidation"}, {"measurement": "bioavailability", "setting": "[1]; after oral or inhaled administration", "value": "10 to 40", "unit": "%"}, {"measurement": "brain penetrance", "setting": "[1]; animals and humans", "value": "good brain penetrance"}, {"measurement": "metabolic stability compared to THC", "setting": "[1]; human, in vivo", "value": "metabolically more stable"}]}
